Each compound was assayed on Hartley-type male guinea pigs (assay: Guinea Pig Homogeneous Skin Passive Anaphylaxis Assay (PCA reaction)). Conditions: 10 mg/kg oral, 48 h after sensitization.
Type: in vivo, guinea pig (Hartley-type)
Experimental: In order to confirm the anti-allergic action of the compounds according to the present invention, as an anti-allergic action confirmation assay, the widely used Guinea Pig Homogeneous Skin Passive Anaphylaxis Assay (PCA Reaction Assay; Passive Cutaneous Anaphylaxis Reaction Assay) was carried out. The assay method used will be explained in the following.
Assay method: Hartley-type male guinea pigs (body weight: 250~300 g) were sensitized by the following procedure; a mixture of 2 μg of egg albumin (OVA) and 5 μg of aluminium hydroxide gel was administered intraperitoneally 3 times every 2 weeks, and the anti-OVA blood serum was manufactured.
The anti-blood serum obtained was then diluted 120 times using physiological saline solution, and then to groups each containing 6 shaved guinea pigs, was injected at a quantity of 0.05 ml respectively, into two positions in the back portion, inside the skin of each animal.
After the 48th hour of sensitization, 10 mg/kg of the test substance to be tested was orally administered, following which a mixture of 2 mg OVA and 5 mg of Evans Blue was administered by intraveneous injection into the hind leg, triggering the anaphylaxis reaction. As the positive control, Tranilast, a well known anti-allergic agent, was used, and in the same manner as the substances to be tested, 100 mg/kg of it was orally administered after the 48th hour of sensitization.
30 minutes after triggering the reaction, the animals were bled to death under ether anesthesia, and their back portion skins were peeled off. The long and short diameters of pigment leakage spots on the interior surface of the skins were measured, and the product of these (mm^2) were entered into formula 1 as "pigment leakage amount", from which the allergic reaction inhibitory index wins calculated. [formula]
I: Allergic reaction inhibitory index (%)
A: Pigment leakage amount of solvent control group
B: Pigment leakage amount of test substance group
C: Pigment leakage amount of […]

Row | Compound | Allergic reaction inhibitory index (%)
1 | 3-(methoxy)-4-(decyloxy)-8-hydroxy-2H-1-benzopyran-2-one [Compound 99] | 33
2 | CC(=O)Oc1ccc2c(OC(C)=O)c(OC/C=C(\C)CCC=C(C)C)c(=O)oc2c1 [Compound 22, 3-(geranyloxy)-4,7-(diacetoxy)-2H-1-benzopyran-2-one] | 31

Same assay, conditions: Cavia porcellus, 10 mg/kg oral, 48 h after sensitization, read-out: Allergic reaction inhibitory index (%)

Row | Compound | inhibition in vivo at 10 mg/kg [%]
3 | O=C(Oc1c(O)c2ccc(O)cc2oc1=O)c1ccccc1 [Compound 4, 3-(benzoyloxy)-4,7-dihydroxy-2H-1-benzopyran-2-one] | 43
4 | O=c1oc2cc(O)ccc2c(O)c1O [Compound 5, 3,4,7-trihydroxy-2H-1-benzopyran-2-one] | 68
5 | CC(=O)Oc1c(O)c2ccc(O)cc2oc1=O [Compound 7, 3-(acetoxy)-4,7-(dihydroxy)-2H-1-benzopyran-2-one] | 48
6 | O=C(Oc1c(O)c(=O)oc2cc(O)ccc12)c1ccccc1 [Compound 8, 4-(benzoyloxy)-3,7-(dihydroxy)-2H-1-benzopyran-2-one] | 40
7 | CCCCCCCCCCOc1c(O)c(=O)oc2cc(O)ccc12 [Compound 9, 4-(decyloxy)-3,7-(dihydroxy)-2H-1-benzopyran-2-one] | 39
8 | CC(=O)Oc1c(OC(=O)c2ccccc2)c2ccc(O)cc2oc1=O [Compound 10, 3-(acetoxy)-4-(benzoyloxy)-7-hydroxy-2H-1-benzopyran-2-one] | 30
9 | CC(=O)Oc1ccc2c(OC(C)=O)c(OC(C)=O)c(=O)oc2c1 [Compound 11, 3,4,7-(triacetoxy)-2H-1-benzopyran-2-one] | 31
10 | CCCCCCCCCCOc1c(OC(C)=O)c(=O)oc2cc(O)ccc12 [Compound 12, 3-(acetoxy)-4-(decyloxy)-7-hydroxy-2H-1-benzopyran-2-one] | 30
11 | CC(C)Oc1c(OC(=O)c2ccccc2)c2ccc(O)cc2oc1=O [Compound 13, 3-(isopropoxy)-4-(benzoyloxy)-7-hydroxy-2H-1-benzopyran-2-one] | 32
12 | COc1c(O)c2ccc(O)cc2oc1=O [Compound 14, 3-(methoxy)-4,7-(dihydroxy)-2H-1-benzopyran-2-one] | 47
13 | CC(C)Oc1c(O)c2ccc(O)cc2oc1=O [Compound 15, 3-(isopropoxy)-4,7-(dihydroxy)-2H-1-benzopyran-2-one] | 41
14 | CCCCCCCCCCOc1c(O)c2ccc(O)cc2oc1=O [Compound 16, 3-(decyloxy)-4,7-(dihydroxy)-2H-1-benzopyran-2-one] | 40
15 | COc1c(OC)c2ccc(O)cc2oc1=O [Compound 17, 3,4-(dimethoxy)-7-hydroxy-2H-1-benzopyran-2-one] | 31
16 | COc1c(OC(C)C)c2ccc(O)cc2oc1=O [Compound 18, 3-(methoxy)-4-(isopropoxy)-7-hydroxy-2H-1-benzopyran-2-one] | 30
17 | CC(C)=CCC/C(C)=C/COc1c(O)c2ccc(O)cc2oc1=O [Compound 19, 3-(geranyloxy)-4,7-(dihydroxy)-2H-1-benzopyran-2-one] | 42
18 | CC(C)=CCC/C(C)=C/COc1c(O)c(=O)oc2cc(O)ccc12 [Compound 20, 3,7-(dihydroxy)-4-(geranyloxy)-2H-1-benzopyran-2-one] | 30
19 | CC(=O)Oc1c(OC/C=C(\C)CCC=C(C)C)c(=O)oc2cc(O)ccc12 [Compound 21, 3-(geranyloxy)-4-(acetoxy)-7-hydroxy-2H-1-benzopyran-2-one] | 33
20 | CC(C)=CCC/C(C)=C/COc1c(OC(=O)c2ccccc2)c(=O)oc2cc(O)ccc12 [Compound 23, 3-(benzoyloxy)-4-(geranyloxy)-7-hydroxy-2H-1-benzopyran-2-one] | 30

Row | Compound | inhibition in vivo at 10 mg/kg [%]
21 | COc1c(OC/C=C(\C)CCC=C(C)C)c(=O)oc2cc(O)ccc12 [Compound 24, 3-(geranyloxyl)-4-(methoxy)-7-hydroxy-2H-1-benzopyran-2-one] | 33
22 | CC(C)=CCC/C(C)=C/COc1c(OC(C)C)c(=O)oc2cc(O)ccc12 [Compound 25, 3-(isopropoxy)-4-(geranyloxy)-7-hydroxy-2H-1-benzopyran-2-one] | 32
23 | CC(C)=CCC/C(C)=C/COc1c(OC/C=C(\C)CCC=C(C)C)c2ccc(O)cc2oc1=O [Compound 26, 3,4-(digeranyloxy)-7-hydroxy-2H-1-benzopyran-2-one] | 30
24 | COc1ccc2c(O)c(OC(=O)c3ccccc3)c(=O)oc2c1 [Compound 27, 3-(benzoyloxy)-4-hydroxy-7-(methoxy)-2H-1-benzopyran-2-one] | 40
25 | COc1ccc2c(O)c(O)c(=O)oc2c1 [Compound 28, 3,4-dihydroxy-7-(methoxy)-2H-1-benzopyran-2-one] | 53
26 | COc1ccc2c(O)c(OC(C)=O)c(=O)oc2c1 [Compound 29, 3-(acetoxy)-4-hydroxy-7-(methoxy)-2H-1-benzopyran-2-one] | 46
27 | COc1ccc2c(OC(=O)c3ccccc3)c(OC)c(=O)oc2c1 [Compound 30, 3,7-(dimethoxy)-4-(benzoyloxy)-2H-1-benzopyran-2-one] | 31
28 | COc1ccc2c(OC(C)=O)c(O)c(=O)oc2c1 [Compound 31, 3-hydroxy-4-(acetoxy)-7-(methoxy)-2H-1-benzopyran-2-one] | 38
29 | COc1ccc2c(OC(C)C)c(OC(C)=O)c(=O)oc2c1 [Compound 32, 3-(acetoxy)-4-(isopropoxy)-7-(methoxy)-2H-1-benzopyran-2-one] | 33
30 | COc1ccc2c(OC)c(O)c(=O)oc2c1 [Compound 33, 3-hydroxy-4,7-(dimethoxy)-2H-1-benzopyran-2-one] | 33
31 | COc1ccc2c(O)c(OC(C)C)c(=O)oc2c1 [Compound 34, 3-(isopropoxy)-4-hydroxy-7-(methoxy)-2H-1-benzopyran-2-one] | 39
32 | COc1ccc2c(OC(C)=O)c(OC(=O)c3ccccc3)c(=O)oc2c1 [Compound 35, 3-(benzoyloxy)-4-(acetoxy)-7-(methoxy)-2H-1-benzopyran-2-one] | 30
33 | CCCCCCCCCCOc1c(OC)c(=O)oc2cc(OC)ccc12 [Compound 36, 3,7-(dimethoxy)-4-(decyloxy)-2H-1-benzopyran-2-one] | 30
34 | COc1ccc2c(O)c(OC/C=C(\C)CCC=C(C)C)c(=O)oc2c1 [Compound 37, 3-(geranyloxy)-4-hydroxy-7-(methoxy)-2H-1-benzopyran-2-one] | 40
35 | COc1ccc2c(OC/C=C(\C)CCC=C(C)C)c(O)c(=O)oc2c1 [Compound 38, 3-hydroxy-4-(geranyloxy)-7-(methoxy)-2H-1-benzopyran-2-one] | 31
36 | COc1ccc2c(OC(=O)c3ccccc3)c(OC/C=C(\C)CCC=C(C)C)c(=O)oc2c1 [Compound 39, 3-(geranyloxy)-4-(benzoyloxy)-7-(methoxy)-2H-1-benzopyran-2-one] | 30
37 | COc1ccc2c(OC/C=C(\C)CCC=C(C)C)c(OC(C)=O)c(=O)oc2c1 [Compound 40, 3-(acetoxy)-4-(geranyloxy)-7-(methoxy)-2H-1-benzopyran-2-one] | 34

From patent US5428059A, “Benzopyran derivatives and an anti-allergic agent possessing the same as the active ingredient” (Dainippon Ink & Chemicals, Inc., priority 1991, dated 1995)
